The values that follow come from patent publication US20070004680A1, “Compositions and methods for modulating gated ion channels” (PainCeptor Pharma Corporation, priority 2004, published 2007).

Test [1] addresses T1, ASIC1a (Homo sapiens, UniProt P78348).
T1 construct: host or cells: HEK293
T1 sequence (P78348 1-528): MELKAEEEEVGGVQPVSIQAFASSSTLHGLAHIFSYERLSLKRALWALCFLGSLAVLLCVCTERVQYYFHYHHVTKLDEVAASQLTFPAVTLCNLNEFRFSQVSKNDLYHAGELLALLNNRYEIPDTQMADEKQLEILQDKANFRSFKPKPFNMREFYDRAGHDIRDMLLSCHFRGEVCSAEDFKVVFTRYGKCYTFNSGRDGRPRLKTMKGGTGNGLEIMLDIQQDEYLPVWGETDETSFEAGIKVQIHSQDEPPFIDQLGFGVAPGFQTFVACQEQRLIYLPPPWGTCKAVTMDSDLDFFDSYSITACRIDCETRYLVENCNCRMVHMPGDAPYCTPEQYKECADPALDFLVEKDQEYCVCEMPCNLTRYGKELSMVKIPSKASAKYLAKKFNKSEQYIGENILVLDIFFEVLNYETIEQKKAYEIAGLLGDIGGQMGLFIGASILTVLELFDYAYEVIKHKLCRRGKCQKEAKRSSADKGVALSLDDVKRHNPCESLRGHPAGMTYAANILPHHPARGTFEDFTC
In words: FLIPR calcium assay (MES-induced calcium response), ASIC1a expressing HEK293 cells. The following applies: HEK293; at 1 μM, HEK cells, FLIPR. It counts as cell-based. On the procedure:
ASIC1a expressing HEK293 cells are grown in culture medium (DMEM with 10% FBS), in polystyrene culture flasks ([…]) at 37° C. in a humidified atmosphere of 5% CO2. Confluency of cells should be 80-90% on day of plating. Cells are rinsed with 10 ml of PBS and cells are re-suspended by addition of culture medium and trituration with a 25 ml pipette.
The cells are seeded at a density of approximately 1×10^6 cells/ml (100 μl/well) in black-walled, clear bottom, 96-well plates pre-treated with 10 mg/l poly-D-lysin (75 μl/well for ≧30 min). Plated cells were allowed to proliferate for 24 h before loading with dye.
Fluo-4/AM (1 mg, Molecular Probes) is added 912 μl DMSO. The Fluo-4/AM stock solution (1 mM) is diluted with culture medium to a final concentration of 2 μM.
The culture medium is aspirated from the wells, and 50 μl of the Fluo-4/AM loading solution is added to each well. The cells are incubated at 37° C. for 30 min.
After the loading period, the loading solution is aspirated and the cells are washed twice with 100 μl modified FLIPR medium (145 mM NaCl, 5 mM KCl, 5 mM CaCl2, 1 mM MgCl2, 10 mM HEPES, pH 7.4) to remove extracellular dye. Following the second wash, 100 μl modified FLIPR medium is added to each well and the fluorescence is measured in FLIPR.
Temperature: Room temperature (20-22° C.)
First addition: 50 μl test solution at a rate of 30 μl/sec and a starting height of […]
Second addition: 50 μl MES solution (20 mM, 5 mM final concentration) at a rate of 35 μl/sec and a starting height of 150 μl.
Reading intervals: pre-incubation—10 sec×7 and 3 sec×3 antagonist phase—3 sec×17 and 10 sec×12
Addition plates (compound test plate and MES plate) are placed on the right and left positions in the FLIPR tray, respectively. Cell plates are placed in the middle position and the ASIC1a program is effectuated. FLIPR will then take the appropriate measurements in accordance with the interval settings above. Fluorescence obtained after stimulation is corrected for the mean basal fluorescence (in modified FLIPR medium). […]

The target in test [2] is T2, ASIC3 (Rattus norvegicus, UniProt O35240).
T2 construct: expressed in transfected cells
T2 sequence (O35240 1-533): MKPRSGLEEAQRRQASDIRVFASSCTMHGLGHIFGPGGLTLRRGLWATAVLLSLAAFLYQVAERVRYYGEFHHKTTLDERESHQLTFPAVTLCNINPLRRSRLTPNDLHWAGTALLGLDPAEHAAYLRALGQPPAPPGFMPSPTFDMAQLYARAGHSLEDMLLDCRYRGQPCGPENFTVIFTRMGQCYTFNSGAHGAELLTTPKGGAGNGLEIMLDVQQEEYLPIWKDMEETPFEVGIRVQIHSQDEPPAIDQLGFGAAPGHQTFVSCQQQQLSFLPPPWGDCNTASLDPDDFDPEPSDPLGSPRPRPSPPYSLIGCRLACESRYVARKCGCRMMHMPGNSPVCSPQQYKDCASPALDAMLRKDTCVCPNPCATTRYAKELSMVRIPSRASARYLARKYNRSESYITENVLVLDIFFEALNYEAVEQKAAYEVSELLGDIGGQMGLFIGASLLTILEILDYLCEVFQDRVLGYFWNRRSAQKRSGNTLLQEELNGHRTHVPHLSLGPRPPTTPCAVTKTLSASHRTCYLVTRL
The experiment in a line: whole cell patch clamp electrophysiology, ASIC3. The following applies: 1 μM compound; pH 6.5 and pH 5.0; compared with the corresponding 5-vinyl esters. In kind it is cell-based. On the procedure:
(§1) Another example of an in vitro assessment method consists of using mammalian heterologous expression systems, which are known to the skilled in the art, and include a variety of mammalian cell lines such as COS, HEK, e.g., HEK293and/or CHO, cells. Cell lines are transfected with gated ion channel(s) and used to perform electrophysiology as follows:
(§2) All experiments are performed at room temperature (20-25° C.) in voltage clamp using conventional whole cell patch clamp methods (Neher, E., et al. (1978) Pfluegers Arch 375:219-228).
(§3) The amplifier used is the EPC-9 (HEKA-electronics, Lambrect, Germany) run by a Macintosh G3 computer via an ITC-16 interface. Experimental conditions are set with the Pulse-software accompanying the amplifier. Data is low pass filtered and sampled directly to hard-disk at a rate of 3 times the cut-off frequency.
(§4) Pipettes are pulled from borosilicate glass using a horizontal electrode puller (Zeitz-lnstrumente, Augsburg, Germany). The pipette resistances are 2-3 MOhms in the salt solutions used in these experiments. The pipette electrode is a chloridized silver wire, and the reference is a silver chloride pellet electrode (In Vivo Metric, Healdsburg, USA) fixed to the experimental chamber. The electrodes are zeroed with the open pipette in the bath just prior to sealing.
Coverslips with the cells are transferred to a 15 μl experimental chamber mounted on the stage of an inverted microscope (IMT-2, Olympus) supplied with Nomarski optics. Cells are continuously superfused with extracellular saline at a rate of 2.5 ml/min. After giga-seal formation, the whole cell configuration is attained by suction. The cells are held at a holding voltage of −60 mV and at the start of each experiment the current is continuously measured for 45 s to ensure a stable baseline. Solutions of low pH (<7) are delivered to the chamber through a custom-made gravity-driven flowpipe, the tip of which is placed approximately 50 μm from the cell. Application is triggered when the tubing connected to the flowpipe is compressed by a valve controlled by the Pulse-software. Initially, low pH (in general, pH 6.5) is applied for 1 s every 45 s. The sample interval during application is 550 μs. After stable responses are obtained, the extracellular saline as well as the low-pH solution are switched to solutions containing the compound to be tested. The compound is present until responses of a repeatable amplitude are achieved. Current amplitudes are measured at the peak of the responses, and effect of the compounds is calculated as the amplitude at compound equilibrium divided by the amplitude of the current evoked by the pulse just before the compound was included. […]
On the technique in general: The patch-clamp technique gives a direct electrical read-out from membranes.

For test [3], the target named is T3, ASIC1a (Rattus norvegicus, UniProt P55926).
T3 construct: expressed in transfected cells; host or cells: HEK cells according to b213
T3 sequence (P55926 1-526): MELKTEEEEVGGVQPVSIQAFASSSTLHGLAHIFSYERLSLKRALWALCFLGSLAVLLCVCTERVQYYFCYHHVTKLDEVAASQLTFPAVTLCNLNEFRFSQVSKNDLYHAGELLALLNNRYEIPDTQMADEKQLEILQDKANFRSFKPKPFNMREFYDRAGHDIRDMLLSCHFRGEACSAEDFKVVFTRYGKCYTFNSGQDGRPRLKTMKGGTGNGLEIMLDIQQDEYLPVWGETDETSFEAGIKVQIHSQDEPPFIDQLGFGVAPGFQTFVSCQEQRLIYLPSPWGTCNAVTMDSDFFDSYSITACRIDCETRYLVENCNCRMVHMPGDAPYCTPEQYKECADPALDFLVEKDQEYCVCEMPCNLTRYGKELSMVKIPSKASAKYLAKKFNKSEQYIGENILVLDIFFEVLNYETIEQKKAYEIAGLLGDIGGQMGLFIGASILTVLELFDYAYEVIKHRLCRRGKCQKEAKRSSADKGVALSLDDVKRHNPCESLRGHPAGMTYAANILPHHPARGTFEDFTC
In words: whole cell patch clamp electrophysiology, ASIC1a. In kind it is cell-based. The following applies: 1 μM compound; pH 6.5 and pH 5.0; compared with the corresponding 5-vinyl esters. On the procedure:
as §1, §2, §3, §4
Coverslips with the cells are transferred to a 15 μl experimental chamber mounted on the stage of an inverted microscope (IMT-2, Olympus) supplied with Nomarski optics. Cells are continuously superfused with extracellular saline at a rate of 2.5 ml/min. After giga-seal formation, the whole cell configuration is attained by suction. The cells are held at a holding voltage of −60 mV and at the start of each experiment the current is continuously measured for 45 s to ensure a stable baseline. Solutions of low pH (<7) are delivered to the chamber through a custom-made gravity-driven flowpipe, the tip of which is placed approximately 50 μm from the cell. Application is triggered when the tubing connected to the flowpipe is compressed by a valve controlled by the Pulse-software. Initially, low pH (in general, pH 6.5) is applied for 1 s every 45 s. The sample interval during application is 550 μs. After stable responses are obtained, the extracellular saline as well as the low-pH solution are switched to solutions containing the compound to be tested. The compound is present until responses of a repeatable amplitude are achieved. Current amplitudes are measured at the peak of the responses, and effect of the compounds is calculated as the amplitude at compound equilibrium divided by the amplitude of the current evoked by the pulse just before the compound was included.
The following salt solutions are used: extracellular solution (mM): NaCl (140), KCl (4), CaCl2 (2), MgCl2 (4), HEPES (10, pH 7.4); intracellular solution (mM): KCl (120), KOH (31), MgCl2 (1.785), […] (10), HEPES (10, pH 7.2). In general, compounds for testing are dissolved in 50% DMSO at 500 fold the highest concentration used.
The cDNA for ASIC1a and ASIC3 can be cloned from rat poly(A)^+ mRNA and put into expression vectors according to Hesselager et al. (J Biol Chem. 279(12):11006-15 2004). All constructs are expressed in CHO-K1 cells (ATCC no. CCL61). CHO-K1 cells are cultured at 37° C. in a humidified atmosphere of 5% CO2 and 95% air and passaged twice every week. The cells are maintained in DMEM (10 mM HEPES, 2 mM glutamax) supplemented with 10% fetal bovine serum and 2 mM L-proline (Life Technologies). […]

The test system of test [4] is Male Sprague-Dawley rats. In words: Formalin test (flinching behaviour). In kind it is in vivo, rat. The following applies: 10 mg/kg i.v. 10 min prior to formalin in the hind limb; compared with vehicle; n=8. On the procedure:
Male Sprague-Dawley rats (body weight, 180-300 g) are housed together in groups of four animals under standard conditions with unrestricted access to food and water. Rats are housed in the room in which the testing procedure is performed to minimize any stress response to novel environmental cues. All experiments are conducted according to the ethical guidelines for investigations of experimental pain in conscious animals (Zimmerman, 1983).
Separate groups of rats are used for the different experiments such that each animal is used on one occasion only. All experiments for a given compound are performed using age matched animals in an attempt to avoid variability between experiments. Prior to initiation of the formalin test, 4 rats are habituated in separate testing cages for 15-20 min. […] On the basis of the response pattern, two distinct phases of nociceptive behavior are observed, characterized by flinching of the affected paw and scored (Blackburn-Munro et al., Eur J Pharmacol. 2002 Jun. 12;445(3):231-8). […]
All data is analysed using Sigmastat 2.03 statistical software (Jandel Scientific GmbH, Germany) and expressed as mean±S.E.M. Two Way Repeated Measures Analysis of Variance (Two Way RM ANOVA) is used to analyse formalin test data and where applicable, this is followed by post-hoc analysis using Bonferroni's t-test to allow comparisons between groups. […]

Regarding `C=CC1CN2CCC1CC2[C@H](OC(=O)CCC1CCCC1)c1ccnc2ccccc12` (stereo partly drawn) [drawing 27], the inhibition at 1 µM in test [1] fell in the range of 30 to 45%.

For `CCCCC(=O)OC(c1ccnc2ccc(OC)cc12)C1CC2CCN1CC2CC` (stereo not drawn) [pentanoic acid (5-ethyl-1-aza-bicyclo[2.2.2]oct-2-yl)-(6-methoxy-quinolin-4-yl)-methyl ester], the “difference in current between control ASICs and ASICs with compound (ASIC3)” value in test [2] is “larger difference in current”. In addition, the “difference in current between control ASICs and ASICs with compound (ASIC1a)” value in test [3] is recorded as “larger difference in current”.

For `CCC1CN2CCC1CC2C(OC(=O)CC(C)(C)C)c1ccnc2ccc(OC)cc12` (stereo not drawn) [3,3-dimethyl-butyric acid (5-ethyl-1-aza-bicyclo[2.2.2]oct-2-yl)-(6-methoxy-quinolin-4-yl)-methyl ester], the “difference in current between control ASICs and ASICs with compound (ASIC3)” value in test [2] is listed as “larger difference in current”. Also, in test [3], the “difference in current between control ASICs and ASICs with compound (ASIC1a)” value is listed as “larger difference in current”.

As to `C=CC1CN2CCC1CC2[C@H](OC(=O)CCC1CCCC1)c1ccnc2ccccc12` (stereo partly drawn) [B], the “flinching behaviour in Formalin test” value in test [4] was “attenuated flinching behaviour”.

The term inhibition denotes the change of the read-out against control, counted positive when it falls.
